According to US11702635B2, “Hematopoietic stem cell expansion method” (PLASTICELL LIMITED, priority 2017, dated 2023):

What was measured:
UCB CD133+ cells (HSPC) = assay: Ex vivo expansion of umbilical cord blood CD133+ cells, flow cytometry and cell counting; assay type: cell-based, human; details: for fold expansion of total nucleated cells (TNC) compared to cells grown in basal media / fold expansion of HSC (Lin-, CD38-, CD34+, CD45RA-, CD133+, CD90+, CD49f+) higher than basal media containing cytokines: 5 day culture; for fold expansion of total nucleated cells (TNC) compared to cells grown in basal media: HDAC inhibitor with cytokines, with or without WR1065 (100 μM), vs basal media containing cytokines; for fold expansion of HSC compared to cells grown in basal media: expansion protocol as defined above, HDAC inhibitor with or without WR1065; for fold expansion of HSC (Lin-, CD38-, CD34+, CD45RA-, CD133+, CD90+, CD49f+) higher than basal media containing cytokines: scriptaid 1 μM, WR1065 100 μM, FIG. 3
From the text: Human UCB units were collected with written informed pre-consent and ethical approval from Oxford and Berkshire National Research Ethical Committees and studies conducted with approval of the NHSBT research committee. UCB mononuclear cells (MNC) were isolated by density gradient centrifugation on lymphocyte separation medium 1077 (PAA Laboratories, Pasching, Austria; density<1.077 g/ml). CD133+ cells were isolated from the MNC with immunomagnetic beads (Miltenyi Biotec, Germany). After isolation, the cells were cryopreserved in 10% DMSO in FCS (fetal calf serum) and stored at −150° C. in aliquots of 1×10^5 cells/vial. Cells were analysed for the purity of the isolation with flow cytometry on a BD LSR II (BD Biosciences, CA) using CD34-APC, CD133-PE and the appropriate isotype controls (all Miltenyi Biotec). Bone marrow derived CD133+ cells were obtained commercially from Lonza and peripheral blood CD133+ cells were isolated using immunomagnetic beads as above from total peripheral blood mononuclear cells obtained commercially from Lonza Biologics.
Vials from 2 or 3 donors were thawed and pooled in StemSpan ACF media (Stem Cell Technologies) containing 100 ng/mL SCF, 100 ng/mL FLT3LG and 20 ng/mL TPO (all from Miltenyi Biotec). After counting, cells were plated in 96 well round bottom suspension plates at 20,000 cells/well in the above media. Cells were allowed to recover overnight in these conditions in a 37° C. humidified incubator with 5% CO2.
The next day cells were harvested from the plates counted, and seeded into 24 well Nanex plates (Compass Biomedical) or standard tissue culture treated plates at 2500 cells/well in 1 mL basal media (StemSpan ACF with 100 ng/mL SCF, 100 ng/mL FLT3LG and 20 ng/mL TPO) containing an HDAC inhibitor (for most experiments scriptaid was used at a concentration of 1 μM). An aliquot of cells was used for CFU analysis and another for flow cytometry analysis.
After 3 days in culture the media was either replaced or supplemented with fresh media with the cytokines (SCF, TPO and FLT3LG) and the HDAC inhibitors (scriptaid 1 μM). Sixteen to twenty hours prior to harvest WR1065 was added at a concentration of 100 μM. After total of 5 days in expansion, cells are harvested, counted and analysed by flow cytometry.
Cells were harvested, washed and stained in 3% FBS in PBS using a panel of pre-conjugated antibodies. Cells were incubated with antibodies on ice for 30 min, then washed twice in 3% FBS in PBS and resuspended in 250 uL of above buffer before being analysed using a BD Canto II flow cytometer. [Antibody panel was as follows: 5 Lin custom cocktail (CD235a, CD4, CD10, CD11b and CD19) APC-Vio770, CD38-PE-Vio770, CD34-PerCP-Vio700, CD133-PE, CD45RA-VioBlue, CD49f-FITC, CD90-APC (all from Miltenyi Biotec).]
Cell number was measured using flow cytometry with the aid of counting beads (CountBright beads Life Technologies).

[1] = system: bone marrow derived CD34+ cells; details: pre-treatment of cells in vitro; cited from earlier work
[2] = UCB cells from three separate donors and a pooled sample, FIG. 13

| Compound | fold expansion of total nucleated cells (TNC) compared to cells grown in basal media (UCB CD133+ cells (HSPC)) | fold expansion of HSC compared to cells grown in basal media (UCB CD133+ cells (HSPC)) | further results |
| --- | --- | --- | --- |
| Cn1cc(CNCC2CCN(c3ncc(C(=O)NO)cn3)CC2)c2ccccc21 [quisinostat] | slightly lower | significantly increased |  |
| Cc1cc(C)cc(C(=O)NOCCCCCC(=O)NO)c1 [LMK235] | slightly lower | significantly increased |  |
| NCCCNCCS [WR1065] |  |  | enhancement of formation of CFU-GEMM and BFU-E colonies [1]: ≤ 38 fold; fold expansion of HSC (Lin-, CD38-, CD34+, CD45RA-, CD133+, CD90+, CD49f+) higher than basal media containing cytokines (UCB CD133+ cells (HSPC)): around 3 fold |
| Nc1cc(F)ccc1NC(=O)/C=C/c1cnn(C/C=C/c2ccccc2)c1 [RGFP966] | increase | similar |  |
| O=C(CCCCCN1C(=O)c2cccc3cccc(c23)C1=O)NO [scriptaid] | slightly reduced |  | fold expansion of HSC (Lin-, CD38-, CD34+, CD45RA-, CD133+, CD90+, CD49f+) higher than basal media containing cytokines (UCB CD133+ cells (HSPC)): approximately 10 fold; fold expansion of HSC compared to cells cultured in basal media, different culture plates (UCB CD133+ cells (HSPC); Nanex scaffolds, TC treated Corning 24 well plates or suspension Greiner Bio 24 well plates, effect similar across all surfaces, FIG. 14): significantly increased; fold expansion of HSC higher compared to basal media, average (UCB CD133+ cells (HSPC); [2]): 30 fold; fold expansion of HSC higher compared to basal media, range (UCB CD133+ cells (HSPC); [2]): 10-55 fold; proportion of CD133+/CD34+ cells compared to cells grown on cytokines alone (UCB CD133+ cells (HSPC); after 5 days in culture): increase |
| sodium phenylbutyrate | increase | increased |  |
| CN1CCc2c(c3ccccc3n2Cc2ccc(C(=O)NO)cc2)C1 [Tubastatin A] | similar | significantly increased |  |
